Measurements reported in patent US11311576B2, “Methods of use for CAR T cells” (Seattle Children's Hospital, priority 2018, dated 2022).

Legend:
FRβ (CHO-b) = biological target: T1, FRβ (CHO-b) (Homo sapiens, UniProt P14207); experiment: 3H-EC17 cell-based radioligand binding assay, CHO-β cells; conditions: 2 h at 37° C.
T1 construct: expressed in transfected cells; host or cells: CHO (Chinese hamster ovary) cells
Description: The bispecific affinities of EC17 CAM were assessed using ^3H-EC17 in cell-based radioligand binding assays. For binding to FR+ targets, KB and CHO-β cells were pre-seeded overnight in 24-well tissue culture plates and incubated with 0.1, 0.5, 1, 5, 10, 20, and 40 nM of ^3H-EC17 in FFRPMI for 2 h at 37° C. Afterwards, the cells were rinsed with phosphate-buffered saline (PBS, pH 7.4) and lysed with 1% sodium dodecylsulfate. The whole cell lysates were quantitated for the level of radioactivity and cellular protein content by standard Pierce BCA protein assay. The number of ^3H-EC17 molecules bound per cell was calculated to determine the dissociation constants (Kd) for FRα (KB) and FRβ (CHO-b) respectively (FIG. 56A, FIG. 56B).

MDA-MB-231 tumors = experiment: EC17/E2-CAR T-cell therapy in NSG mice bearing MDA-MB-231 tumors; type: in vivo; conditions: 10 million E2 CAR-T cells, EC17 500 nmol/kg days 2 and 10, versus no EC17
Description: MDA-MB-231 tumor cells were grown in folate-deficient RPMI 1640 with 5-10% FBS at 37° C. in a 5% CO2 humidified atmosphere. MDA-MB-231 tumor cells were inoculated subcutaneously at 2.5×10^6 cells per animal. Only […] mice were inoculated and the remaining 22 mice were kept tumor-free.
EGFRt-sorted anti-FITC E2 scFv-CAR T cells were frozen in a T-cell freezing medium. Vials of frozen CAR-T cells were immediately stored at −80° C. The CAR-T cells were quickly thawed at 37° C., washed twice with PBS, and used for animal injection at 10 million viable EGFRt+E2 CAR-T cells (CD4/CD8 at ˜1:1) per animal. […]
Whole blood cell analysis: Plasma was removed from predetermined volumes of whole EDTA treated blood and RBCs were lysed with RBC lysis solution. […] Determination of the concentration of CAR T cells in each blood sample was calculated according to Invitrogen's instructions. CAR T cells were identified as human CD3ε+ EGFRt+ events and easily distinguished and counted using the Kaluza™ flow cytometry software. The number of CAR T cells in the circulation of each infused mouse was then represented on the graphs as the total number of CAR T cells per 100 μL of whole blood analyzed. Statistical significance was determined by utilizing an unpaired, two-tailed, students t30 test with significance set at p<0.05. […]

MDA-MB-231 tumor = experiment: Kinetics of CAR-T cell expansion and tumor uptake in MDA-MB-231 tumor bearing mice; type: in vivo, NSG mice
Description: When the tumor sizes averaged at ˜350±60 mm^3 on day 2, up to […] of EC17 at 500 nmol/kg were given on days 2, 9, 16, 23, and 30. For ex-vivo analysis, 3 animals were taken before the next EC17 dose on days 9, 16, 23, and 30 for a total of 4 collections. For comparison, the same EC17 dose was given to 3 CAR-T mice that had ˜4.4× larger tumor sizes on day 2 (˜1555±79 mm3). For each collection, fresh blood and tumor samples (if available) were analyzed for the presence of human CD3e+ EGFRt+ CAR-T cells by flow cytometry.
For CAR-T cell analysis in the circulation, plasma was removed from a predetermined volume of whole blood collected into tubes containing ethylenediaminetetraacetic acid anticoagulant. […] A minimum of 20,000 propidium iodide negative live cell events were collected on the Gallios flow cytometer and analyzed with the Kaluza software, version 2.1 (Beckman Coulter, Brea, Calif.). CAR-positive T cells were identified in mouse blood as human CD3e+ EGFRt+ events and absolute numbers per volume of blood were calculated using equal numbers of CountBright™ beads (Invitrogen, Carlsbad, Calif.) added to each sample. The number of tumor-infiltrating CD3ε+ EGFRt+ CAR-T cells was expressed as % total viable tumor cells analyzed.

T1 sequence (P14207 17-230): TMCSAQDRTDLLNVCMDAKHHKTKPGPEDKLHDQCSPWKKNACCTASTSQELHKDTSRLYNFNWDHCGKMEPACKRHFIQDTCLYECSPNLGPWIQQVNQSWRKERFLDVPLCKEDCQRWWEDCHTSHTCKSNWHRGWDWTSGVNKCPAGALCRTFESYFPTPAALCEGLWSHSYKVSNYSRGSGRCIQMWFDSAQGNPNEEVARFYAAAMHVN

NC1=NC2N=CC(CNc3ccc(C(=O)N[C@@H](CCC(=O)NCCNC(=S)Nc4ccc(-c5c6ccc(=O)cc-6oc6cc(O)ccc56)c(C(=O)O)c4)C(=O)O)cc3)=NC2C(=O)N1 (stereo partly shown) [EC17, FA-(g)-ethylenediamine-FITC]
Kd (FRβ (CHO-b)): 0.8 nM
cytokine levels (IL2, IFN-γ, IL-10) in plasma (MDA-MB-231 tumors): all increased
body weight loss (MDA-MB-231 tumor; ~4.8 million E2-CAR-T cells, after EC17 administration, especially third dose): mild body weight loss
tumor response (MDA-MB-231 tumor; ~4.8 million EGFRt-sorted E2-CAR-T cells, weekly EC17 500 nmol/kg): started to respond after the second EC17 dose
